Test results published in patent US20260041653A1, “AN HDAC INHIBITOR FOR TREATING CANCER WITH A MODIFIED STK11 ACTIVITY OR EXPRESSION” (Tango Therapeutics, Inc., priority 2022, published 2026).

Tested on: MC38_sgStk11 tumor
Experiment: Anti-tumor efficacy in murine subcutaneous MC38_sgStk11 tumor model
Format: in vivo, Mus musculus
Settings: for T/C / TGI %: day 11
Method: Summary: An in vivo anti-tumor efficacy of double combination treatment of Anti-PD1 and HDAC1,2-selective inhibitor in a murine subcutaneous MC38_sgStk11 tumor model in […] mice was performed.
96 mice plus 39 spare mice of the species: Mus musculus: strain: C57BL/6; age 8-10 weeks; sex: female; and body weight: 16.9-20.0 g
The MC38_sgStk11 tumor cells were maintained in vitro as a monolayer culture in DMEM+2 mM glutamine supplemented with about 10% heat inactivated fetal bovine serum, about 100 U/ml penicillin and 100 μg/ml streptomycin at about 37° C. in an atmosphere of about 5% CO2 in air. The tumor cells were routinely sub-cultured twice weekly by trypsin-EDTA treatment. The cells growing in an exponential growth phase were harvested and counted for tumor inoculation.
Each mouse was inoculated subcutaneously at the right upper flank with MC38_sgStk11 tumor cells (0.5×106) in 0.1 ml of PBS for tumor development. Treatments were started on day 4 after tumor inoculation when the average tumor size reached 52 mm^3. The animals were assigned into groups according to a sorting standard operating procedures based upon their tumor volumes. Each group consisted of 8 tumor bearing mice. The testing article was administrated to the mice according to the predetermined regimen as shown in the experimental design table (Table 1-1).
All the procedures related to animal handling, care and the treatment in the study were performed according to the guidelines approved by the Institutional Animal Care and Use Committee (IACUC) of vendor following the guidance of the Association for Assessment and Accreditation of Laboratory Animal Care (AAALAC). At the time of routine monitoring, the animals were daily checked for any effects of tumor growth and treatments on normal behavior such as mobility, food and water consumption, body weight gain/loss (body weights were measured three times per week), eye/hair matting and any other abnormal effect as stated in the protocol. Death and observed clinical signs were recorded on the basis of the numbers of animals within each subset.
A primary endpoint was to see if the tumor growth could be delayed or mice could be cured. Tumor size was measured three times per week in two dimensions using a caliper, and the volume was expressed in mm3 using the formula: V=0.5 a×b2 where a and b are the long and short diameters of the tumor, respectively. The T/C value (in percent) is an indication of antitumor effectiveness; T and C are the mean volume of the treated and control groups, respectively, on a given day. TGI is calculated for each group using the formula: TGI (%)=[1−(Ti−T0)/(Vi−V0)]×100; Ti is the average tumor volume of a treatment group on a given day, T0 is the average tumor volume of the treatment group on the day of treatment start, Vi is the average tumor volume of the vehicle control group on the same day with Ti, and V0 is the average tumor volume of the vehicle group on the day of treatment start.
Statistical analysis of difference in the tumor volume among the groups were conducted on the data obtained at the best therapeutic time point at the day 11 after the start of treatment. A one-way ANOVA was performed for comparisons between groups. The survival analysis between groups was carried out with Kaplan-Meier test. p<0.05 was considered to be statistically significant.

[1] = Gr 2: Compound I 3 mg/kg PO QD + Anti-IgG2a 10 mg/kg IP BIW
[2] = Gr 3: Compound I 10 mg/kg PO QD + Anti-IgG2a 10 mg/kg IP BIW
[3] = Gr 4: Compound I 30 mg/kg PO QD + Anti-IgG2a 10 mg/kg IP BIW
[4] = Gr 5: Compound I 75 mg/kg PO QD + Anti-IgG2a 10 mg/kg IP BIW

With `C[S@@](=N)(=O)c1ccc(C(=O)Nc2cc(-c3ccc(F)cc3)ccc2N)cc1` [Compound I, (R)—N-(4-amino-4′-fluoro-[1,1′-biphenyl]-3-yl)-4-(S-methylsulfonimidoyl)benzamide] the “CR (complete regression)” value [1] was 0.0%, the “ORR (CR + PR)” value [1] was 0.0% and the “PR (partial regression)” value [1] was 0.0%. For the same compound, the “Tumor Volume” value (Gr 2: Compound I 3 mg/kg PO QD + Anti-IgG2a 10 mg/kg IP BIW, day 0 of treatment) was 52 ± 2 mm^3, the “Tumor Volume” value (Gr 2: Compound I 3 mg/kg PO QD + Anti-IgG2a 10 mg/kg IP BIW, day 2 of treatment) was 208 ± 6 mm^3 and the “Tumor Volume” value (Gr 2: Compound I 3 mg/kg PO QD + Anti-IgG2a 10 mg/kg IP BIW, day 4 of treatment) was 489 ± 23 mm^3. The “Tumor Volume” value (Gr 2: Compound I 3 mg/kg PO QD + Anti-IgG2a 10 mg/kg IP BIW, day 7 of treatment) was 925 ± 98 mm^3, the “Tumor Volume” value (Gr 2: Compound I 3 mg/kg PO QD + Anti-IgG2a 10 mg/kg IP BIW, day 9 of treatment) was 1439 ± 130 mm^3 and the T/C [1] was 98.7%. For the same compound, the TGI % [1] was 1.3%, the “Tumor Volume” value (Gr 2: Compound I 3 mg/kg PO QD + Anti-IgG2a 10 mg/kg IP BIW, day 11 of treatment) was 2105 ± 184 mm^3 and the “Tumor Volume” value (Gr 2: Compound I 3 mg/kg PO QD + Anti-IgG2a 10 mg/kg IP BIW, day 14 of treatment) was 2876 ± 196 mm^3. For the same compound, the “Tumor Volume” value (Gr 2: Compound I 3 mg/kg PO QD + Anti-IgG2a 10 mg/kg IP BIW, day 16 of treatment) was 3215 ± 79 mm^3, the “CR (complete regression)” value [2] was 0.0% and the “ORR (CR + PR)” value [2] was 0.0%. For the same compound, the “PR (partial regression)” value [2] was 0.0%, the “Tumor Volume” value (Gr 3: Compound I 10 mg/kg PO QD + Anti-IgG2a 10 mg/kg IP BIW, day 0 of treatment) was 52 ± 2 mm^3 and the “Tumor Volume” value (Gr 3: Compound I 10 mg/kg PO QD + Anti-IgG2a 10 mg/kg IP BIW, day 2 of treatment) was 213 ± 10 mm^3. The “Tumor Volume” value (Gr 3: Compound I 10 mg/kg PO QD + Anti-IgG2a 10 mg/kg IP BIW, day 4 of treatment) was 473 ± 38 mm^3, the “Tumor Volume” value (Gr 3: Compound I 10 mg/kg PO QD + Anti-IgG2a 10 mg/kg IP BIW, day 7 of treatment) was 735 ± 82 mm^3 and the “Tumor Volume” value (Gr 3: Compound I 10 mg/kg PO QD + Anti-IgG2a 10 mg/kg IP BIW, day 9 of treatment) was 1059 ± 167 mm^3. The T/C [2] was 65.8%, the TGI % [2] was 35.0% and the “Tumor Volume” value (Gr 3: Compound I 10 mg/kg PO QD + Anti-IgG2a 10 mg/kg IP BIW, day 11 of treatment) was 1403 ± 270 mm^3. The “Tumor Volume” value (Gr 3: Compound I 10 mg/kg PO QD + Anti-IgG2a 10 mg/kg IP BIW, day 14 of treatment) was 1923 ± 343 mm^3, the “Tumor Volume” value (Gr 3: Compound I 10 mg/kg PO QD + Anti-IgG2a 10 mg/kg IP BIW, day 16 of treatment) was 2101 ± 176 mm^3 and the “Tumor Volume” value (Gr 3: Compound I 10 mg/kg PO QD + Anti-IgG2a 10 mg/kg IP BIW, day 18 of treatment) was 2570 ± 205 mm^3. The “Tumor Volume” value (Gr 3: Compound I 10 mg/kg PO QD + Anti-IgG2a 10 mg/kg IP BIW, day 21 of treatment) was 3275 ± 64 mm^3, the “CR (complete regression)” value [3] was 0.0% and the “ORR (CR + PR)” value [3] was 0.0%. The “PR (partial regression)” value [3] was 0.0%, the “Tumor Volume” value (Gr 4: Compound I 30 mg/kg PO QD + Anti-IgG2a 10 mg/kg IP BIW, day 0 of treatment) was 52 ± 2 mm^3 and the “Tumor Volume” value (Gr 4: Compound I 30 mg/kg PO QD + Anti-IgG2a 10 mg/kg IP BIW, day 2 of treatment) was 212 ± 14 mm^3. For the same compound, the “Tumor Volume” value (Gr 4: Compound I 30 mg/kg PO QD + Anti-IgG2a 10 mg/kg IP BIW, day 4 of treatment) was 484 ± 37 mm^3, the “Tumor Volume” value (Gr 4: Compound I 30 mg/kg PO QD + Anti-IgG2a 10 mg/kg IP BIW, day 7 of treatment) was 734 ± 64 mm^3 and the “Tumor Volume” value (Gr 4: Compound I 30 mg/kg PO QD + Anti-IgG2a 10 mg/kg IP BIW, day 9 of treatment) was 883 ± 84 mm^3. For the same compound, the T/C [3] was 49.5%, the TGI % [3] was 51.8% and the “Tumor Volume” value (Gr 4: Compound I 30 mg/kg PO QD + Anti-IgG2a 10 mg/kg IP BIW, day 11 of treatment) was 1055 ± 101 mm^3. The “Tumor Volume” value (Gr 4: Compound I 30 mg/kg PO QD + Anti-IgG2a 10 mg/kg IP BIW, day 14 of treatment) was 1481 ± 146 mm^3, the “Tumor Volume” value (Gr 4: Compound I 30 mg/kg PO QD + Anti-IgG2a 10 mg/kg IP BIW, day 16 of treatment) was 1977 ± 272 mm^3 and the “Tumor Volume” value (Gr 4: Compound I 30 mg/kg PO QD + Anti-IgG2a 10 mg/kg IP BIW, day 18 of treatment) was 2344 ± 368 mm^3. For the same compound, the “Tumor Volume” value (Gr 4: Compound I 30 mg/kg PO QD + Anti-IgG2a 10 mg/kg IP BIW, day 21 of treatment) was 2602 ± 361 mm^3, the “Tumor Volume” value (Gr 4: Compound I 30 mg/kg PO QD + Anti-IgG2a 10 mg/kg IP BIW, day 23 of treatment) was 2794 ± 665 mm^3 and the “Tumor Volume” value (Gr 4: Compound I 30 mg/kg PO QD + Anti-IgG2a 10 mg/kg IP BIW, day 25 of treatment) was 1551 mm^3. For the same compound, the “Tumor Volume” value (Gr 4: Compound I 30 mg/kg PO QD + Anti-IgG2a 10 mg/kg IP BIW, day 28 of treatment) was 2589 mm^3, the “Tumor Volume” value (Gr 4: Compound I 30 mg/kg PO QD + Anti-IgG2a 10 mg/kg IP BIW, day 30 of treatment) was 3550 mm^3 and the “CR (complete regression)” value [4] was 12.5%. For the same compound, the “ORR (CR + PR)” value [4] was 12.5%.
